Source: patent US20050181376A1, “Antisense modulation of microsomal triglyceride transfer protein expression” (ISIS Pharmaceuticals, Inc., priority 2001, published 2005)
Strand notation (5' to 3'): a small letter for the sugar, then the base; units joined by * are phosphorothioate-linked, units joined directly phosphodiester-linked; [ ] holds rarer units or linkages, { } end groups; capitals alone tell only the bases. e = 2'-O-(2-methoxyethyl) (MOE); [5mC] = 5-methylcytosine; d = 2'-deoxy (DNA)

What was measured:
[1] = tested on: human microsomal triglyceride transfer protein mRNA; assay: Antisense inhibition of human microsomal triglyceride transfer protein mRNA levels, quantitative real-time PCR; details: averages from two experiments
[2] = tested on: mouse microsomal triglyceride transfer protein mRNA; assay: Antisense inhibition of mouse microsomal triglyceride transfer protein mRNA levels in primary hepatocytes, quantitative real-time PCR; format: cell-based; design: concentration or dose not given beside the values; details: averages from two experiments
Method: Primary mouse hepatocytes were prepared from CD-1 mice purchased from Charles River Labs (Wilmington, Mass.) and were routinely cultured in Hepatocyte Attachment Media (Gibco) supplemented with 10% Fetal Bovine Serum (Gibco/Life Technologies, Gaithersburg, Md.), 250 nM dexamethasone (Sigma), and 10 nM bovine insulin (Sigma). Cells were seeded into 96-well plates (Falcon-Primaria #3872) at a density of 10000 cells/well for use in RT-PCR analysis.
Cells were harvested 16-24 hours after oligonucleotide treatment.
All cytidine residues are 5-methylcytidines. […] Data are averages from two experiments. If present, “N.D.” indicates “no data”.

Substance | % INHIB (inhibition of human microsomal triglyceride transfer protein mRNA levels) [1] | % INHIB (inhibition of mouse microsomal triglyceride transfer protein mRNA levels) [2]
144409 (eT*e[5mC]*eA*eT*eA*dT*dT*dG*dA*d[5mC]*d[5mC]*dA*dG*d[5mC]*dA*eA*eT*e[5mC]*e[5mC]*eT; antisense) [compound 144409] | 31% | 
AGTGTCCCAGTGATGATCAT (antisense eA*eG*eT*eG*eT*d[5mC]*d[5mC]*d[5mC]*dA*dG*dT*dG*dA*dT*dG*eA*eT*e[5mC]*eA*eT) [ISIS 144423] | at least 30% | 
144449 (eA*eT*eG*eT*eG*d[5mC]*d[5mC]*dT*dT*d[5mC]*dT*dA*d[5mC]*d[5mC]*dT*eT*eA*eA*eG*eG) [compound 144449] | 35% | 
144433 (eA*eT*eT*eA*eA*dG*dG*d[5mC]*dT*dT*d[5mC]*d[5mC]*dA*dG*dT*e[5mC]*e[5mC]*eT*eT*eG; antisense) [compound 144433] | 0% | 
CCAGTTGTGTGACCTTTAAC (antisense e[5mC]*e[5mC]*eA*eG*eT*dT*dG*dT*dG*dT*dG*dA*d[5mC]*d[5mC]*dT*eT*eT*eA*eA*e[5mC]) [ISIS 144410] | at least 30% | 
ATTCTGACACAGCTTCCTGA (all phosphorothioate, sugars by position and methylation of C not given here; 2'-MOE wings and deoxy gap) [ISIS 144486, 2′-MOE gapmer phosphorothioate antisense oligonucleotide to mouse MTP] |  | at least 30%
144490 (eA*e[5mC]*eG*eA*eT*dT*d[5mC]*dT*dG*dG*dT*dG*dG*dT*dA*eT*eA*eT*e[5mC]*e[5mC]; antisense) [compound 144490] |  | 23%
144505 (eA*eG*e[5mC]*e[5mC]*eT*dT*dG*dT*d[5mC]*d[5mC]*dA*dT*d[5mC]*dT*dG*e[5mC]*eA*eT*eG*e[5mC]; antisense) [compound 144505] |  | 24%
144494 (eA*eA*eG*eG*e[5mC]*dT*dG*dT*dA*dT*dG*dT*dG*dG*dA*e[5mC]*eG*e[5mC]*eT*eG; antisense) [compound 144494] |  | 27%
CTCGCGATACCACAGACTGA (all phosphorothioate, sugars by position and methylation of C not given here; 2'-MOE wings and deoxy gap) [ISIS 144502, 2′-MOE gapmer phosphorothioate antisense oligonucleotide to mouse MTP] |  | at least 30%
144475 (eT*eG*eG*eA*eA*dT*dA*dA*dG*d[5mC]*dT*dA*dG*d[5mC]*d[5mC]*eA*eA*eG*e[5mC]*e[5mC]; antisense) [compound 144475] |  | 18%
CCCAGCACCTGGTTTGCCGT (all phosphorothioate, sugars by position and methylation of C not given here; 2'-MOE wings and deoxy gap) [ISIS 144477, 2′-MOE gapmer phosphorothioate antisense oligonucleotide to mouse MTP] |  | at least 30%
144496 (e[5mC]*eT*eG*e[5mC]*eA*dA*dT*dT*dA*dA*dG*d[5mC]*d[5mC]*dT*dT*e[5mC]*e[5mC]*eA*eG*e[5mC]; antisense) [compound 144496] |  | 40%
144470 (eG*eT*eA*eG*e[5mC]*d[5mC]*d[5mC]*dA*d[5mC]*dG*d[5mC]*dT*dG*dT*d[5mC]*eT*eT*eG*e[5mC]*eG; antisense) [compound 144470] |  | 5%
144509 (eA*e[5mC]*eT*eG*eT*dG*d[5mC]*dT*d[5mC]*dT*d[5mC]*dA*dG*dA*dG*eA*eG*e[5mC]*eA*eA; antisense) [compound 144509] |  | 0%
CGCTGACAGGGTCGCCGGAT (all phosphorothioate, sugars by position and methylation of C not given here; 2'-MOE wings and deoxy gap) [ISIS 144499, 2′-MOE gapmer phosphorothioate antisense oligonucleotide to mouse MTP] |  | at least 30%
144489 (eG*eT*eG*eG*e[5mC]*dT*dG*dA*d[5mC]*dG*dG*dG*d[5mC]*d[5mC]*d[5mC]*eT*eT*e[5mC]*eT*e[5mC]; antisense) [compound 144489] |  | 42%

Substance | % INHIB (inhibition of human microsomal triglyceride transfer protein mRNA levels) [1] | % INHIB (inhibition of mouse microsomal triglyceride transfer protein mRNA levels) [2]
144468 (eG*eA*eT*e[5mC]*eA*dT*dG*d[5mC]*dT*dG*dG*d[5mC]*dT*d[5mC]*d[5mC]*e[5mC]*eT*e[5mC]*eT*eG; antisense) [compound 144468] |  | 0%
144504 (eG*eA*eA*e[5mC]*eT*d[5mC]*d[5mC]*dA*dG*d[5mC]*d[5mC]*d[5mC]*dA*dG*d[5mC]*e[5mC]*eT*e[5mC]*eT*eG; antisense) [compound 144504] |  | 0%
144479 (e[5mC]*eA*e[5mC]*e[5mC]*eT*dG*d[5mC]*d[5mC]*dA*d[5mC]*dT*dT*dG*d[5mC]*dT*eT*e[5mC]*e[5mC]*e[5mC]*eG; antisense) [compound 144479] |  | 65%
CAGCCTCAGCATACTTCAGA (all phosphorothioate, sugars by position and methylation of C not given here; 2'-MOE wings and deoxy gap) [ISIS 144488, 2′-MOE gapmer phosphorothioate antisense oligonucleotide to mouse MTP] |  | at least 30%
144497 (e[5mC]*eT*e[5mC]*eT*e[5mC]*d[5mC]*dT*dT*d[5mC]*dA*dT*d[5mC]*dA*dG*dG*eA*eG*eT*eG*eG; antisense) [compound 144497] |  | 57%
144488 (e[5mC]*eA*eG*e[5mC]*e[5mC]*dT*d[5mC]*dA*dG*d[5mC]*dA*dT*dA*d[5mC]*dT*eT*e[5mC]*eA*eG*eA; antisense) [compound 144488] |  | 35%
144482 (eG*eA*eA*eG*eT*d[5mC]*d[5mC]*dG*dG*dA*dG*dG*dT*dG*d[5mC]*eT*eG*eG*eA*eT; antisense) [compound 144482] |  | 3%
CCCTGGTCTCTTCTGCAAGC (all phosphorothioate, sugars by position and methylation of C not given here; 2'-MOE wings and deoxy gap) [ISIS 144478, 2′-MOE gapmer phosphorothioate antisense oligonucleotide to mouse MTP] |  | at least 30%
CCTGGAGTATGATACTGCTG (all phosphorothioate, sugars by position and methylation of C not given here; 2'-MOE wings and deoxy gap) [ISIS 144484, 2′-MOE gapmer phosphorothioate antisense oligonucleotide to mouse MTP] |  | at least 30%
144478 (e[5mC]*e[5mC]*e[5mC]*eT*eG*dG*dT*d[5mC]*dT*d[5mC]*dT*dT*d[5mC]*dT*dG*e[5mC]*eA*eA*eG*e[5mC]; antisense) [compound 144478] |  | 41%
144486 (eA*eT*eT*e[5mC]*eT*dG*dA*d[5mC]*dA*d[5mC]*dA*dG*d[5mC]*dT*dT*e[5mC]*e[5mC]*eT*eG*eA; antisense) [compound 144486] |  | 34%
144500 (e[5mC]*e[5mC]*e[5mC]*eT*eT*dT*d[5mC]*dA*d[5mC]*d[5mC]*dA*d[5mC]*dG*d[5mC]*dT*eG*eA*e[5mC]*eA*eG; antisense) [compound 144500] |  | 34%
144471 (e[5mC]*eA*eT*e[5mC]*eA*d[5mC]*d[5mC]*dA*dT*d[5mC]*dA*dG*dG*dA*dT*eT*e[5mC]*e[5mC]*eT*e[5mC]; antisense) [compound 144471] |  | 21%
TGACATGCCAGCATAAGAGT (all phosphorothioate, sugars by position and methylation of C not given here; 2'-MOE wings and deoxy gap) [ISIS 144498, 2′-MOE gapmer phosphorothioate antisense oligonucleotide to mouse MTP] |  | at least 30%
GCTCGAGGACCTGTCCCACA (all phosphorothioate, sugars by position and methylation of C not given here; 2'-MOE wings and deoxy gap) [ISIS 144480, 2′-MOE gapmer phosphorothioate antisense oligonucleotide to mouse MTP] |  | at least 30%
144503 (eG*eT*eT*eA*eT*d[5mC]*dA*d[5mC]*d[5mC]*dA*d[5mC]*dA*dG*d[5mC]*d[5mC]*eA*e[5mC]*e[5mC]*e[5mC]*eG; antisense) [compound 144503] |  | 50%
144502 (e[5mC]*eT*e[5mC]*eG*e[5mC]*dG*dA*dT*dA*d[5mC]*d[5mC]*dA*d[5mC]*dA*dG*eA*e[5mC]*eT*eG*eA; antisense) [compound 144502] |  | 51%
